Source: US4780464A, “(1,2,4)triazolo(4,3-a)quinoxaline-4-amines” (Warner-Lambert Company, priority 1986, dated 1988)

Key:
adenosine A1 receptor = target: T1, adenosine A1 receptor (Rattus norvegicus, UniProt P25099); assay: Adenosine Receptor Binding--A1 Receptor Affinity (RBA1), [3H]-CHA, rat whole brain minus cerebellum and brainstem membranes; design: species or system rat (male Long-Evans); settings: 1.0 nM [3H]-CHA, pH 7.7, 25° C., one hour, read-out: RBA-1 (IC50, adenosine A1 receptor affinity)
T1 construct: Whole brain minus cerebellum and brainstem from male Long-Evans rats (150-200 g) is homogenized; from tissue; host or cells: rat whole brain minus cerebellum and brainstem, membranes
T1 sequence (P25099 1-326): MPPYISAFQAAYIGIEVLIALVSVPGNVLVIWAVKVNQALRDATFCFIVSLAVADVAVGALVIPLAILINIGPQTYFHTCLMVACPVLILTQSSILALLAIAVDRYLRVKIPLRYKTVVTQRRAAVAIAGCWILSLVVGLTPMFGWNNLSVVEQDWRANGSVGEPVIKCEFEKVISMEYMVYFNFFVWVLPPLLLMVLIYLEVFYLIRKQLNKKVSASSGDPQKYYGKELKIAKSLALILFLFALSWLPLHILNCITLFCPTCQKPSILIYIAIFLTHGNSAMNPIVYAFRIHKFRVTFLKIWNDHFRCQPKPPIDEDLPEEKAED
Description: Whole brain minus cerebellum and brainstem from male Long-Evans rats (150-200 g) is homogenized in 30 volumes of ice-cold 0.05 M Tris-HCl buffer pH 7.7 using a Brinkman Polytron PT-10, (setting number 6 for 20 seconds) and centrifuged for ten minutes at 20,000×g (Sorvall RC-2), 4° C. The supernatant is discarded, and the pellet is resuspended and centrifuged as before. The pellet is resuspended in 20 ml Tris-HCl buffer containing two International Units/ml of adenosine deaminase (Sigma type III from calf intestinal mucosa), incubated at 37° C. for 30 minutes, then subsequently at 0° C. for ten minutes. The homogenate is again centrifuged, and the final pellet is resuspended in ice-cold 0.05 M Tris-HCl buffer pH 7.7 to a concentration of 20 mg/ml original wet tissue weight and used immediately. […] Incubation volume was 2 ml. […] The filters are rinsed three times with 5 ml of ice-cold 0.05 M Tris-HCl buffer pH 7.7. The radio-labeled ligand retained on the filter is measured by liquid scintillation spectrophotometry after shaking the filters for one hour or longer on a mechanical shaker in 10 ml of Beckman Ready-Solv HP scintillation cocktail. Nonspecific binding is defined as the binding which occurs in the presence of 1 mM theophylline. […] The Scatchard plot is calculated by linear regression of the line obtained by plotting the amount of radioligand bound (pmoles/gram of tissue) versus [formula] Since the amount of radioligand bound is a small fraction of the total amount added, free radioligand is defined as the concentration of (nM) of radioligand added to the incubation mixture. The Hill coefficient is calculated by linear regression of the line obtained by plotting the log of the bound radioligand vs the log of the [formula] The maximal number of binding sites (Bmax) is calculated from the Scatchard plot.

adenosine A2 receptor = target: T2, adenosine A2 receptor (Rattus norvegicus, UniProt P30543); assay: Adenosine Receptor Binding--A2 Receptor Affinity (RBA2), [3H]NECA, rat striatal membranes; design: species or system rat (Sprague-Dawley; Long-Evans hooded); settings: 4 nM [3H]NECA, 50 nM N6-cyclopentyladenosine, 25° C., 60 min, read-out: RBA-2 (IC50, adenosine A2 receptor affinity)
T2 construct: Brains are thawed and then kept on ice while the striata are dissected out; tissue Pel-Freez (Rogers, Arkansas); host or cells: rat striatum, membranes
T2 sequence (P30543 whole entry): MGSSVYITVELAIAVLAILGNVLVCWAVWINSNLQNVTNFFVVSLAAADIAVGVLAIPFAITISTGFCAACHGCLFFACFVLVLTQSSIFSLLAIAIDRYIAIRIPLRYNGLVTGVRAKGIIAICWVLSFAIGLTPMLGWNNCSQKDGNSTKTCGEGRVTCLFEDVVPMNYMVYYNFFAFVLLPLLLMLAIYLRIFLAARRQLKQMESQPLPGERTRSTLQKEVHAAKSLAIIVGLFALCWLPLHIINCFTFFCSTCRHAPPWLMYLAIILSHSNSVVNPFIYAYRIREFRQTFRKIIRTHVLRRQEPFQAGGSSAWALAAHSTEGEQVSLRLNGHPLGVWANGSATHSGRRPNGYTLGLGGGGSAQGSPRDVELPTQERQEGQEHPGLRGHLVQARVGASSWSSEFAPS
Description: Brains from 200-500 g mixed sex Sprague-Dawley rats are purchased from Pel-Freez (Rogers, Arkansas). Fresh brains from male Long-Evans hooded rats (Blue Spruce Farms, Altamont, NY) give essentially identical results. Brains are thawed and then kept on ice while the striata are dissected out. Striata are disrupted in 10 vol of ice-cold 50 mM Tris.HCl (pH 7.7 at 25° C., pH 8.26 at 5° C.) (Tris) for 30 seconds in a Polytron PT-10 (Brinkman) at setting 5. The suspension is centrifuged at 50,000 xg for ten minutes, the supernatant discarded, the pellet resuspended in 10 vol ice-cold Tris as above, recentrifuged, resuspended at 1 g/5 ml, and stored in plastic vials at -70° C. (stable for at least six months). When needed, tissue is thawed at room temperature, disrupted in a Polytron, and kept on ice until used.
All incubations are for 60 minutes at 25° C. in 12×75 mm glass tubes containing 1 ml Tris with 5 mg original tissue weight of rat weight of rat striatal membranes, 4 nM [^3 H]-N-ethyl adenosine-5'-carboxamide ([^3 H]NECA), 50 nM N6-cyclopentyladenosine (to eliminate A1 receptor binding), 10 mM MgCl2, 0.1 units/ml of adenosine deaminase and 1% dimethylsulfoxide. N6-Cyclopentyladenosine is dissolved at 10 mM in 0.02 N HCl and diluted in Tris. Stock solutions and dilutions of N6-cyclopentyladenosine can be stored at -20° C. for several months. Test compounds are dissolved at 10 mM in dimethylsulfoxide on the same day as the experiment, and diluted in dimethylsulfoxide to 100× the final incubation concentration. […] [^3 H]NECA is diluted to 40 nM in Tris. The membrane suspension (5 mg/0.79 ml) contained sufficient MgCl2 and adenosine deaminase to give 10 mM and 0.1 units/ml, respectively, final concentration in the incubation. […] After all additions, the rack of tubes is vortexed, and the tubes are then incubated for 60 min at 25° C. in a shaking water bath. The rack of tubes is vortexed an additional time halfway through the incubation.
Incubations are terminated by filtration through 2.4 cm GF/B filters under reduced pressure. Each tube is filtered as follows: the contents of the tube are poured on the filter, 4 ml of ice-cold Tris are added to the tube and the contents poured onto the filter, and the filter is washed twice with 4 ml of ice-cold Tris. The filtration is complete in about twelve seconds. Filters are put in scintillation vials, 8 ml of Formula 947 scintillation fluid added, and the vials left overnight, shaken, and counted in a liquid scintillation counter at 40% efficiency.
Nonspecific binding is defined as binding in the presence of 100 μM N6-cyclopentyladenosine, and specific binding is defined as total binding minus nonspecific binding. The IC50 is calculated by weighted nonlinear least squares curve-fitting to the mass-action equation. [formula] where
Weighting factors are calculated under the assumption that the standard deviation was proportional to the predicted value of Y. Nonspecific binding is treated as a very large (infinite) concentration of drug in the computer analysis.

SMILES | IC50 (adenosine A1 receptor) [nM] | IC50 (adenosine A2 receptor) [nM]
CCc1nnc2c(N[C@@H]3C[C@H]4CC[C@@H]3C4)nc3ccccc3n12 (relative stereo) [Example 9, Exo-N-bicyclo[2.2.1]hept-2-yl-1-ethyl[1,2,4]triazolo [4,3-a]quinoxalin-4-amine] | 74 | 8690
c1ccc2c(c1)nc(NC1CCCC1)c1nncn12 [Example 1, N-Cyclopentyl[1,2,4]triazolo[4,3-a]quinoxalin-4-amine] | 331 | 7770
Cc1nnc2c(NC3CCCC3)nc3ccccc3n12 [Example 2, N-cyclopentyl-1-methyl[1,2,4]triazolo[4,3-a]quinoxalin-4-amine] | 71 | 6130
CCc1nnc2c(NC3CCCC3)nc3ccccc3n12 [Example 3, N-Cyclopentyl-1-ethyl[1,2,4]triazolo[4,3-a]quinoxalin-4-amine] | 49.7 | 2510
CCCc1nnc2c(NC3CCCC3)nc3ccccc3n12 [Example 4, N-Cyclopentyl-1-propyl[1,2,4]triazolo[4,3-a]quinoxalin-4-amine] | 68 | 5080
CCCCc1nnc2c(NC3CCCC3)nc3ccccc3n12 [Example 5, 1-Butyl-N-cyclopentyl[1,2,4]triazolo[4,3-a]quinoxalin-4-amine] | 101 | > 100000
CCc1nnc2c(NC3CC3)nc3ccccc3n12 [Example 6, N-Cyclopropyl-1-ethyl[1,2,4]triazolo[4,3-a]quinoxalin-4-amine] | 487 | 6630
CCc1nnc2c(NC3CCC3)nc3ccccc3n12 [Example 7, N-Cyclobutyl-1-ethyl[1,2,4]triazolo[4,3-a]quinoxalin-4-amine] | 109 | 2320
CCc1nnc2c(NC3CCCCC3)nc3ccccc3n12 [Example 8, N-Cyclohexyl-1-ethyl[1,2,4]triazolo[4,3-a]quinoxalin-4-amine] | 146 | 5880
CCc1nnc2c(NC[C@H](C)O)nc3ccccc3n12 [Example 10, (S)-1-[(1-ethyl[1,2,4]triazolo[4,3-a]quinoxalin-4-yl)amino]-2-propanol] | 554 | 40700
CCc1nnc2c(Nc3ccccc3)nc3ccccc3n12 [Example 11, 1-Ethyl-N-phenyl[1,2,4]triazolo[4,3-a]quinoxalin-4-amine] | 982 | 20000
FC(F)(F)c1nnc2c(NC3CCCC3)nc3ccccc3n12 [Example 13, N-Cyclopentyl-1-(trifluoromethyl)[1,2,4]triazolo [4,3-a]quinoxalin-4-amine] | 12.5 | 2080
